Data as given in ChEMBL document CHEMBL1153970, “Characteristic of neuraminidase inhibitory xanthones from Cudrania tricuspidata” (Bioorg Med Chem, 2009).
“And” between values parts separate entries of the source, which are not always exact repeats. Equal values may be shown once.

Tests used:
[1] = target: T1, Sialidase (Clostridium perfringens) (UniProt P10481); test: (§1) Inhibition of Clostridium perfringens neuraminidase by fluorimetry
T1 sequence (whole entry): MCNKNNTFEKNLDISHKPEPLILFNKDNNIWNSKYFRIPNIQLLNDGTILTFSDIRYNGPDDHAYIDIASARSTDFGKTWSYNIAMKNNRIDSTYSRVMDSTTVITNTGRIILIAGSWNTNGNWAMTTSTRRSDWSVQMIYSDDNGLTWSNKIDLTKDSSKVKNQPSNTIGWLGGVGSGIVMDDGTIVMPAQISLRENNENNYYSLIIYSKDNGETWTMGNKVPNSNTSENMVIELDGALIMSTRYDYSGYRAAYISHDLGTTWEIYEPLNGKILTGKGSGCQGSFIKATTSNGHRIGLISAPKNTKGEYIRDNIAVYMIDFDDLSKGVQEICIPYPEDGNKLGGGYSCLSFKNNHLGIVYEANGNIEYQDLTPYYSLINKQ

Sialidase [2] = target: T2, Sialidase (Clostridium perfringens, UniProt P10481); test: as §1
T2 sequence (P10481 whole entry): T1 sequence (whole entry)

Sialidase [3] = target: T2, Sialidase; test: Apparent binding affinity at Clostridium perfringens neuraminidase by fluorimetry; settings: read-out: Ki(app)
Sialidase [4] = target: T2, Sialidase; test: Competitive inhibition of Clostridium perfringens neuraminidase by Lineweaver-Burke plot and Dixon plot
[5] = target: T1, Sialidase (Clostridium perfringens); test: Inhibition of Clostridium perfringens neuraminidase at 200 uM by fluorimetry

Row | Compound | Activity [1] | IC50 (Sialidase [2]) | Ki (Sialidase [3]) | Ki (Sialidase [4]) | Activity [5] | inhibition [5]
1 | C=CC(C)(C)c1c(O)cc2oc3cc(O)c(O)c(CC=C(C)C)c3c(=O)c2c1O | Dose-dependent effect | 80 nM | 127 nM | 58 nM |  | 
2 | C=CC(C)(C)c1c(O)cc(O)c2c(=O)c3cc(O)c4c(c3oc12)C=CC(C)(C)O4 |  |  |  |  | Dose-dependent effect | 30%
3 | O=c1cc(-c2ccc(O)cc2)oc2cc(O)cc(O)c12 [APIGENIN] |  | 17400 nM |  |  |  | 
4 | C=CC(C)(C)c1c(O)cc(O)c2c(=O)c3c(CC=C(C)C)c(O)c(O)cc3oc12 [CUDRATRICUSXANTHONE A] | Dose-dependent effect | 245 nM | 214 nM | 136 nM |  | 
5 | C=CC(C)(C)c1c(OC)cc(O)c2c(=O)c3c(CC=C(C)C)c(O)c(O)cc3oc12 [CUDRAXANTHONE D] | Dose-dependent effect | 278 nM and 1270 nM | 436 nM and 2230 nM | 143 nM and 950 nM |  | 
6 | C=CC(C)(C)c1c(O)cc2oc3c(CC=C(C)C)c(O)c(O)cc3c(=O)c2c1O [CUDRAXANTHONE L] | Dose-dependent effect | 228 nM | 568 nM | 138 nM |  | 
7 | CC(C)=CCc1c(O)c(O)cc2c(=O)c3c(O)c4c(cc3oc12)OC(C)C4(C)C (centres undefined) [CUDRAXANTHONE M] | Dose-dependent effect | 186 nM | 510 nM | 98 nM |  | 
8 | C=CC(C)(C)c1c2c(c(O)c3c(=O)c4ccc(O)c(O)c4oc13)C=CC(C)(C)O2 [MACLURAXANTHONE] | Dose-dependent effect | 186 nM | 477 nM | 103 nM |  | 
9 | O=c1c2cc(O)c(O)cc2oc2cc(O)c([C@@H]3O[C@H](CO)[C@@H](O)[C@H](O)[C@H]3O)c(O)c12 [MANGIFERIN] |  | 16200 nM |  |  |  | 
10 | O=c1c(O)c(-c2ccc(O)c(O)c2)oc2cc(O)cc(O)c12 [QUERCETIN] |  | 2700 nM |  |  |  | 
